Measurements as given in patent US8318762B2, “Pyrazolospiroketone acetyl-CoA carboxylase inhibitors” (Pfizer Inc., priority 2008, dated 2012).

Legend:
rat liver ACC = rat liver ACC (Rattus norvegicus, UniProt P11497); format: biochemical; conditions: rat liver ACC radio enzymatic assay
Experimental: [1] Preparation of rat liver ACC. Rat liver ACC was obtained from rat liver based upon standard procedures such as those described by Thampy and Wakil (J. Biol. Chem. 260: 6318-6323; 1985) using the following method.
Male CD rats weighing 150-200 g were fasted for 18-24 hours and then fed a high sucrose diet (AIN-76A rodent diet; Cat # D10001, Research Diets Inc., New Brunswick, N.J.), for 3 days at which time they were sacrificed by CO2 asphyxiation. The livers were removed, rinsed in ice-cold phosphate-buffered saline (PBS), and homogenized in 5 volumes of homogenization buffer (50 mM potassium phosphate, pH 7.5, 10 mM EDTA, 10 mM 2-mercaptoethanol, 2 mM benzamidine, 0.2 mM phenylmethylsulfonylfluoride (PMSF), 5 mg/L each leupeptin, aprotinin, and antitrypsin) in a Waring® blender for 1 minute at 4° C. All subsequent operations were carried out at 4° C. The homogenate has made 3% with respect to polyethylene glycol (PEG) by the addition of 50% PEG solution and centrifuged at 20,000×g for 15 minutes. The resulting supernatant was adjusted to 5% PEG with the addition of 50% PEG solution and stirred for 5 minutes. The pellet (contains ACC activity) was collected by centrifugation at 20,000×g for 20 minutes, rinsed with ice-cold doubly distilled water to remove excess PEG and re-suspended in one-fourth the original homogenate volume with homogenization buffer. Ammonium sulfate (200 g/liter) was slowly added with stirring. After 45 minutes the enzyme is collected by centrifugation for 30 minutes at 20,000×g, re-suspended in 10 mL of 50 mM HEPES, pH7.5, 0.1 mM DTT, 1.0 mM EDTA, and 10% glycerol and desalted on a Sephadex™ G-25 column (2.5 cm×50 cm) (Pharmacia, Piscataway N.J. now GE Healthcare) equilibrated with the same buffer. The desalted enzyme preparation was stored in aliquots at −70° C. Immediately prior to use, frozen rat liver ACC aliquots were thawed, diluted to 500 μg/mL in buffer containing 50 mM HEPES, pH7.5, 10 mM MgCl2, 10 mM tripotassium citrate, 2.0 mM dithiothreitol (DTT), and 0.75 mg/mL fatty acid-free bovine serum albumin (BSA) and pre-incubated at 37° C. for 30 minutes.
[2] Measurement of rat liver ACC inhibition. For measurement of ACC activity and assessment of ACC inhibition, test compounds were dissolved in dimethylsulfoxide (DMSO) and 1 μL aliquots were added to a clear bottom, 96-well plates (Perkin-Elmer PN#1450-514). Control wells contain 1 μL of DMSO alone or 1 μL of high inhibition compound. The enzyme obtained from rat liver as described above was activated in Enzyme buffer at 37° C. for 30 minutes prior to addition to compound plate. All wells receive 75 μL of activated enzyme (1.33×) in a buffer containing 50 mM HEPES, pH7.5, 7.5 mM MgCl2 7.5 mM tripotassium citrate, 2 mM DTT, 50 mg/mL BSA. The activated enzyme was pre-incubated with the cmpd for 10 minute prior to initiating the reaction through the addition of 25 μL of substrate solution containing 50 mM HEPES, pH7.5, 7.5 mM MgCl2 7.5 mM tripotassium citrate, 2 mM DTT, 50 mg/mL BSA, 120 μM acetyl-CoA, 8.0 mM ATP, 38.4 mM KHCO3, and 1.6 mM NaH[^14C]O3 ([…]). The final substrate concentrations in the reaction were 30 μM Acetyl-CoA, 9.6 mM KHCO3, 0.4 mM NaH[^14C]O3, and 2 mM ATP. The reaction was terminated after 10 mins by the addition of 25 μL 3N HCl and the plates were dried at 50° C. for a minimum 20 hrs. 30 μL of water was added to the dried plate and mixed for 5 minutes. 95 μL of Optiphase Supermix liquid scintillation fluid (Perkin Elmer, Waltham, Mass.) was added and the plates are mixed for 20 minutes. Incorporation of ^14C into MCoA was measured using a Wallac Trilux 1450 Microbeta LSC luminescence counter.

[1] = test system: malonyl-CoA levels in liver; assay: Acute in vivo assessment of ACC inhibition: malonyl-CoA levels in liver tissue; design: species or system male Sprague-Dawley Rats; conditions: relative to chow-fed vehicle control group, % decrease +/- SEM
Experimental: (§1) The ACC inhibitory activity of the compound of the present invention can be confirmed in vivo by evaluation of their ability to reduce malonyl-CoA levels in liver and muscle tissue from treated animals.
(§2) Measurement of malonyl-CoA production inhibition in experimental animals. In this method, male Sprague-Dawley Rats, maintained on standard chow and water ad libitum (225-275 g), were randomized prior to the study. Animals were either fed, or fasted for 18 hours prior to the beginning of the experiment. Two hours into the light cycle the animals were orally dosed with a volume of 5 mL/kg, (0.5% methyl cellulose; vehicle) or with the appropriate compound (prepared in vehicle). Fed vehicle controls were included to determine baseline tissue malonyl-CoA levels while fasted animals were included to determine the effect fasting had on malonyl-CoA levels. One hour after compound administration the animals were asphyxiated with CO2 and the tissues were removed. Specifically, blood was collected by cardiac puncture and placed into BD Microtainer tubes containing EDTA (BD Biosciences, NJ), mixed, and placed on ice. Plasma was used to determine drug exposure. Liver and quadriceps were removed, immediately freeze-clamped, wrapped in foil and stored in liquid nitrogen.
(§3) Tissues were pulverized under liquid N2 to ensure uniformity in sampling. Malonyl-CoA was extracted from the tissue (150-200 mg) with 5 volumes 10% […] in Lysing Matrix A (MP Biomedicals, PN 6910) in a FastPrep FP120 (Thermo Scientific, speed=5.5; for 45 seconds). The supernatant containing malonyl-CoA was removed from the cell debris after centrifugation at 15000×g for 30 minutes (Eppendorf Centrifuge 5402). Samples were stably frozen at −80 C until analysis is completed.
(§4) Analysis of malonyl CoA levels in liver and muscle tissue can be evaluated using the following methodology.
(§5) The method utilizes the following materials: Malonyl-CoA tetralithium salt and malonyl-^13C3-CoA trilithium salt which were purchased from Isotec (Miamisburg, Ohio, USA), sodium perchlorate (Sigma, cat no. 410241), trichloroacetic acid (ACROS, cat no. 42145), phosphoric acid (J. T. Baker, cat no. 0260-01), ammonium formate (Fluke, cat no. 17843), methanol (HPLC grade, J. T. Baker, cat no. 9093-33), and water (HPLC grade, J. T. Baker, 4218-03) were used to make the necessary mobile phases. Strata-X on-line solid phase extraction columns, 25 μm, 20 mm×2.0 mm I.D (cat no. 00M-S033-B0-CB) were obtained from Phenomenex (Torrance, Calif., USA). SunFire C18 reversed-phase columns, 3.5 μm, 100 mm×3.0 mm I.D. (cat no. 186002543) were purchased from Waters Corporation (Milford, Mass., USA).
(§6) This method may be performed utilizing the following equipment. Two-dimensional chromatography using an Agilent 1100 binary pump, an Agilent 1100 quaternary pump and two Valco Cheminert 6-port two position valves. Samples were introduced via a LEAP HTC PAL auto sampler with Peltier cooled stack maintained at 10° C. and a 20 μL sampling loop. The needle wash solutions for the autosampler are 10% trichloroacetic acid in water (w/v) for Wash 1 and 90:10 methanol:water for Wash 2. The analytical column (Sunfire) was maintained at 35° C. using a MicroTech Scientific Micro-LC Column Oven. The eluant was analyzed on an ABI Sciex API3000 triple quadrupole mass spectrometer with Turbo Ion Spray.
(§7) Two-dimensional chromatography was performed in parallel using distinct gradient elution conditions for on-line solid phase extraction and reversed-phase chromatography. The general design of the method was such that the first dimension was utilized for sample clean-up and capture of the analyte of interest followed by a brief coupling of both dimensions for elution from the first dimension onto the second dimension. The dimensions were subsequently uncoupled allowing for gradient elution of the analyte from the second dimension for quantification while simultaneously preparing the first dimension for the next sample in the sequence. […]

[2] = test system: malonyl-CoA levels in muscle tissue; assay: Acute in vivo assessment of ACC inhibition: malonyl-CoA levels in muscle tissue (quadriceps); design: species or system male Sprague-Dawley Rats; conditions: relative to chow-fed vehicle control group, % decrease +/- SEM
Experimental: as §1, §2, §3, §4, §5, §6, §7

recombinant human ACC2 = biological target: T1, recombinant human ACC2 (Homo sapiens, UniProt O00763); assay: Measurement of human ACC2 inhibition (recombinant hACC2 Transcreener ADP detection FP assay); format: biochemical; conditions: recombinant hACC2 transcreener assay; read-out: rhACC2 IC50
T1 construct: a full length Cytomax clone of ACC2 was purchased from Cambridge Bioscience Limited; made in house; host or cells: CHO cells (tetracycline induction, pcDNA5 FRT TO-TOPO); purified on a Softlink Soft Release Avidin column
Procedure, shortened: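 Purified hACC2 from tetracycline-induced CHO cells (avidin-column eluate) was run in 50 mM HEPES pH7.5, 5 mM MgCl2, 5 mM citrate, 2 mM DTT, 0.5 mg/mL BSA with 30 μM acetyl-CoA, 50 μM ATP and 8 mM KHCO3. Reaction lasted 1 hour at room temperature; ADP was detected by Transcreener FP after another 1 hour.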

T1 sequence (O00763 whole entry): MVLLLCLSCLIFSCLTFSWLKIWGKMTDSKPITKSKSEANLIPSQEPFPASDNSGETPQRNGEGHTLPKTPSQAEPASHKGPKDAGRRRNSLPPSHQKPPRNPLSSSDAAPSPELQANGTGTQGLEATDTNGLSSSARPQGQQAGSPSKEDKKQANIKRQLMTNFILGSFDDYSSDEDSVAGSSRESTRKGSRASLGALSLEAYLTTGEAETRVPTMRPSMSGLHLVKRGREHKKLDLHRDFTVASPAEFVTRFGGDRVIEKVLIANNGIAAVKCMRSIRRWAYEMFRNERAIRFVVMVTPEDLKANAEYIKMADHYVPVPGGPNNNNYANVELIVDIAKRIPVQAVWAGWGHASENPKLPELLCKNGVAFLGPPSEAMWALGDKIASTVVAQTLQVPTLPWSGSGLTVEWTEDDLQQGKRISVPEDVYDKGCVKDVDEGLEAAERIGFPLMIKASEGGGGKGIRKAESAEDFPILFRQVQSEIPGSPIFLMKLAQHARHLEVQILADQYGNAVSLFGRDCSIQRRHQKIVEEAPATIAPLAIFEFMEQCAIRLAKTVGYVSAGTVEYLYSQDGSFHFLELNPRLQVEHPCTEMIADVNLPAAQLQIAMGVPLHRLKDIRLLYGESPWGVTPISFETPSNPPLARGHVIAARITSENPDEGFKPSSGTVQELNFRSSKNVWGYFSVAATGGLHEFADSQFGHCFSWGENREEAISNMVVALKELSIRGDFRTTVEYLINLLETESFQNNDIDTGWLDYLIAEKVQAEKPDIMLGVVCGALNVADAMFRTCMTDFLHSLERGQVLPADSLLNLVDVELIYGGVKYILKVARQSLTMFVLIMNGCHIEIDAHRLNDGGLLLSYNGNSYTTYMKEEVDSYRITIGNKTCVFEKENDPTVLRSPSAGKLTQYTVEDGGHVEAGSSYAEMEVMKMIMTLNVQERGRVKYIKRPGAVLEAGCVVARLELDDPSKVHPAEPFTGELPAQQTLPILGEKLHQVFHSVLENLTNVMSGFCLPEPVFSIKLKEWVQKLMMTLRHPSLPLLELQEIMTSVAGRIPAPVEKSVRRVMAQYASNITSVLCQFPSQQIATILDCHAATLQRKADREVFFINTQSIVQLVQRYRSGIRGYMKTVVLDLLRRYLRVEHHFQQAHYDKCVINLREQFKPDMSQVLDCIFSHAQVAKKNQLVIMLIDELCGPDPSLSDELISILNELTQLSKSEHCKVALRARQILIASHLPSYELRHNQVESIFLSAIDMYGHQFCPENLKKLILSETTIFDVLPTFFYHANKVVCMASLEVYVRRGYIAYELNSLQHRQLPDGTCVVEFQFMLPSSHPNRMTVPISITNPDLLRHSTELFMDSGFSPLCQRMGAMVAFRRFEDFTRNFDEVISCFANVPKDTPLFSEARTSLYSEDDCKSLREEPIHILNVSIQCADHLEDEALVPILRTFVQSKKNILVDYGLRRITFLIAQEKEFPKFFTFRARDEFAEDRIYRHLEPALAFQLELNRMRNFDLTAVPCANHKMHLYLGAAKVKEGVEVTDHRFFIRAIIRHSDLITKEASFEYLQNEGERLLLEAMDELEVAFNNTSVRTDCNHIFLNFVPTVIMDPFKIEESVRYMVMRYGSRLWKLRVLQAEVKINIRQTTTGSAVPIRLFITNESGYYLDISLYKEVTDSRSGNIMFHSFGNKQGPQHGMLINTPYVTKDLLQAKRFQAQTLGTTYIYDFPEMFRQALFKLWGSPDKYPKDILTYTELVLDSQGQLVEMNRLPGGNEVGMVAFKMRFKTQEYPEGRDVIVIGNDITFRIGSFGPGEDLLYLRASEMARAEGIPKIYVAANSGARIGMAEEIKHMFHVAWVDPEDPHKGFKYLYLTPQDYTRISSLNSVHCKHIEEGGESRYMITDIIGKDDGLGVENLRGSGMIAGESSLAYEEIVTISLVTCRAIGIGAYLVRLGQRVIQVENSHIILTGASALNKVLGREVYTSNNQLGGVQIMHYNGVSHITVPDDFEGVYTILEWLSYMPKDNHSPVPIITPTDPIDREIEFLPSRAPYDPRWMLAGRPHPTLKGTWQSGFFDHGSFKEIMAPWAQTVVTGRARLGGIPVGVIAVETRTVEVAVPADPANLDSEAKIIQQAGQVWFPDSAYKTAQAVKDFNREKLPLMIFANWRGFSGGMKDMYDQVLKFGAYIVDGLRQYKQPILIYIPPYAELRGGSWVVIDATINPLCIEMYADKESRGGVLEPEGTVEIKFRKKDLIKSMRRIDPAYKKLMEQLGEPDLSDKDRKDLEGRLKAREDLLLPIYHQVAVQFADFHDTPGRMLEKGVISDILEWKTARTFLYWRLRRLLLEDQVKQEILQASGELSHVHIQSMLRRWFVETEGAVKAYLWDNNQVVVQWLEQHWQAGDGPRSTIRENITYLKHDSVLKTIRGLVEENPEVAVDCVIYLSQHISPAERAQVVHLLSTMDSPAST

| SMILES | IC50 (rat liver ACC) [nM] | IC50 (recombinant human ACC2) [nM] | also measured |
| --- | --- | --- | --- |
| CC(C)(C)n1cc2c(n1)C(=O)CC1(CCN(C(=O)c3ccc4[nH]ncc4c3)CC1)O2 [1.074] | 17 | – | Percent decrease in Liver Malonyl-CoA ([1]; dose 1 mg/kg): 34.97 (2.59) %; Percent decrease in Liver Malonyl-CoA ([1]; dose 3 mg/kg): 53.97 (1.19) %; Percent decrease in Liver Malonyl-CoA ([1]; dose 10 mg/kg): 70.74 (3.49) %; Percent decrease in Liver Malonyl-CoA ([1]; dose 30 mg/kg): 63.60 (3.57) %; Percent decrease in Muscle Malonyl-CoA (quadriceps) ([2]; dose 1 mg/kg): 2.34 (5.44) %; Percent decrease in Muscle Malonyl-CoA (quadriceps) ([2]; dose 3 mg/kg): 24.42 (6.83) %; Percent decrease in Muscle Malonyl-CoA (quadriceps) ([2]; dose 10 mg/kg): 49.00 (2.40) %; Percent decrease in Muscle Malonyl-CoA (quadriceps) ([2]; dose 30 mg/kg): 57.06 (2.04) % |
| CCn1nc2c(c1C)OC1(CCN(C(=O)c3cc(C)c4[nH]cc(C)c4c3)CC1)CC2=O [4.001] | 9 | 29 | – |
| CC(C)n1cc2c(n1)C(=O)CC1(CCN(C(=O)c3ccc4cn(C)nc4c3)CC1)O2 [5.002] | 201 | 147 | – |
| COc1ccc2cc(C(=O)N3CCC4(CC3)CC(=O)c3nn(C(C)(C)C)cc3O4)ccc2c1 [6.004] | 77 | 38 | – |
| CC(C)(C)n1cc2c(n1)C(=O)CC1(CCN(C(=O)c3ccc4ncsc4c3)CC1)O2 [10.002] | 46 | 25 | – |
